In ChEMBL document CHEMBL4507329, “Data for DCP probe BTZO-1” (2021):

Experiments:
[1] = molecular target: Homeodomain-interacting protein kinase 3 (Homo sapiens) (UniProt Q9H422); settings: Compound concentration 1000.0 nM
[2] = molecular target: Activin receptor type-1-like (Homo sapiens) (UniProt P37023); settings: Compound concentration 1000.0 nM
[3] = molecular target: Protein kinase C eta type (Homo sapiens) (UniProt P24723); settings: Compound concentration 1000.0 nM
[4] = molecular target: T1, Macrophage migration inhibitory factor (Homo sapiens) (UniProt P14174); assay: ARE-Luc Reporter Assay (Activation of ARE (antioxidant response element)-mediated cytoprotective gene expression)
T1 sequence (whole entry): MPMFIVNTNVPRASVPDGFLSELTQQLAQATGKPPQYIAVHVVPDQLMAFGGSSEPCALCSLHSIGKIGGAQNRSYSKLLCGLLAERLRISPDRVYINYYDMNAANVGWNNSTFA

[5] = molecular target: Mu-type opioid receptor (Homo sapiens) (UniProt P35372); settings: Compound concentration 10.0 uM
[6] = molecular target: Dual specificity mitogen-activated protein kinase kinase 7 (Homo sapiens) (UniProt O14733); settings: Compound concentration 1000.0 nM
[7] = molecular target: Serine/threonine-protein kinase N1 (Homo sapiens) (UniProt Q16512); settings: Compound concentration 1000.0 nM
[8] = molecular target: Kappa-type opioid receptor (Homo sapiens) (UniProt P41145); settings: Compound concentration 10.0 uM
Chain of Kappa-type opioid receptor (Homo sapiens) (P41145 whole entry): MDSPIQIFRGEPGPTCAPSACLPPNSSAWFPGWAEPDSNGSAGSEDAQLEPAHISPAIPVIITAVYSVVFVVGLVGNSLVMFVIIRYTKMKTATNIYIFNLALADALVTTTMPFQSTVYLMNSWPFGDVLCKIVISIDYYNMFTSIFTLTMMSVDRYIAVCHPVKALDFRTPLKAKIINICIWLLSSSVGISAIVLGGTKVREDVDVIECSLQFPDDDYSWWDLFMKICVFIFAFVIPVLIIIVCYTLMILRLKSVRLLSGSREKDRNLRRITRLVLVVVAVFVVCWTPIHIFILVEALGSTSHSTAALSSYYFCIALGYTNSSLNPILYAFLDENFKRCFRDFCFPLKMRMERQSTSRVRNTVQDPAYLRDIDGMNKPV

[9] = molecular target: Tyrosine-protein kinase Lck (Homo sapiens) (UniProt P06239); settings: Compound concentration 1000.0 nM
[10] = molecular target: Serine/threonine-protein kinase Chk1 (Homo sapiens) (UniProt O14757); settings: Compound concentration 1000.0 nM
[11] = molecular target: Tyrosine-protein kinase receptor UFO (Homo sapiens) (UniProt P30530); settings: Compound concentration 1000.0 nM
[12] = system: Phosphatidylinositol 4,5-bisphosphate 3-kinase catalytic subunit alpha isoform (Homo sapiens), P42336 [I800L]; settings: Compound concentration 1000.0 nM
[13] = molecular target: Calcium/calmodulin-dependent protein kinase type 1D (Homo sapiens) (UniProt Q8IU85); settings: Compound concentration 1000.0 nM
Chain of Calcium/calmodulin-dependent protein kinase type 1D (Homo sapiens) (Q8IU85 whole entry, looked up): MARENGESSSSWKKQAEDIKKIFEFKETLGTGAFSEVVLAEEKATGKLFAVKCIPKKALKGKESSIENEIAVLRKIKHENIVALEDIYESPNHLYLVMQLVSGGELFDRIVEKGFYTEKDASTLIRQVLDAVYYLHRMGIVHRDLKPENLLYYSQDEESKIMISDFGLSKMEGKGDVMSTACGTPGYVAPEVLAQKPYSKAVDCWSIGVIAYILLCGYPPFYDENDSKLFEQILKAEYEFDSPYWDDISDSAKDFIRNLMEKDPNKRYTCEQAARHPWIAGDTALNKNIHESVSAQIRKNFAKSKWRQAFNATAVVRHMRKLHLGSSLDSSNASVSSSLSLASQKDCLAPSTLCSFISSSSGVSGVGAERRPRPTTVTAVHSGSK

[14] = molecular target: Myosin light chain kinase family member 4 (Homo sapiens) (UniProt Q86YV6); settings: Compound concentration 1000.0 nM
[15] = molecular target: Dual specificity protein kinase CLK3 (Homo sapiens) (UniProt P49761); settings: Compound concentration 1000.0 nM
[16] = molecular target: Protein kinase C epsilon type (Homo sapiens) (UniProt Q02156); settings: Compound concentration 1000.0 nM
[17] = molecular target: cAMP-dependent protein kinase catalytic subunit beta (Homo sapiens) (UniProt P22694); settings: Compound concentration 1000.0 nM
[18] = molecular target: Macrophage colony-stimulating factor 1 receptor (Homo sapiens) (UniProt P07333); settings: Compound concentration 1000.0 nM
[19] = system: Receptor-type tyrosine-protein kinase FLT3 (Homo sapiens), P36888 [UNDEFINED MUTATION]; settings: Compound concentration 1000.0 nM
[20] = molecular target: Calcium/calmodulin-dependent protein kinase type 1B (Homo sapiens) (UniProt Q6P2M8); settings: Compound concentration 1000.0 nM
[21] = molecular target: Leukocyte tyrosine kinase receptor (Homo sapiens) (UniProt P29376); settings: Compound concentration 1000.0 nM
[22] = molecular target: 5'-AMP-activated protein kinase catalytic subunit alpha-2 (Homo sapiens) (UniProt P54646); settings: Compound concentration 1000.0 nM
Chain of 5'-AMP-activated protein kinase catalytic subunit alpha-2 (Homo sapiens) (P54646 whole entry, looked up): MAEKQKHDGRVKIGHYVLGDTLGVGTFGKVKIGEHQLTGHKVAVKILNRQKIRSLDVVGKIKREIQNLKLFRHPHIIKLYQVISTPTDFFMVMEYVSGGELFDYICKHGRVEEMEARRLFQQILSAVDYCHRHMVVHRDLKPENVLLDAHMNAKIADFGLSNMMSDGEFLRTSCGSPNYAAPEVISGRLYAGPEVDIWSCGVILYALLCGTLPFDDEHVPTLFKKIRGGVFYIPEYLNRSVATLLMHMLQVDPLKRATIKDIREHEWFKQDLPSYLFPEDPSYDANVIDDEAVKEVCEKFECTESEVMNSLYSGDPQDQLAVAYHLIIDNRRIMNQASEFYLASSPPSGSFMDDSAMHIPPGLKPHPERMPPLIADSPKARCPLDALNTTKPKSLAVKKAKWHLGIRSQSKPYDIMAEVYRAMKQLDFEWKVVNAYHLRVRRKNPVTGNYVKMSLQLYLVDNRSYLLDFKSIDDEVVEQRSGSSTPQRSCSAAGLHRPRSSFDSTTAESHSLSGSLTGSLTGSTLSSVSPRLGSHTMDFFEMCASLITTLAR

[23] = molecular target: NT-3 growth factor receptor (Homo sapiens) (UniProt Q16288); settings: Compound concentration 1000.0 nM
[24] = molecular target: Serine/threonine-protein kinase Nek1 (Homo sapiens) (UniProt Q96PY6); settings: Compound concentration 1000.0 nM
[25] = molecular target: Vascular endothelial growth factor receptor 3 (Homo sapiens) (UniProt P35916); settings: Compound concentration 1000.0 nM
[26] = molecular target: SRSF protein kinase 3 (Homo sapiens) (UniProt Q9UPE1); settings: Compound concentration 1000.0 nM
[27] = molecular target: Mitogen-activated protein kinase kinase kinase 14 (Homo sapiens) (UniProt Q99558); settings: Compound concentration 1000.0 nM
[28] = molecular target: Alpha-2C adrenergic receptor (Homo sapiens) (UniProt P18825); settings: Compound concentration 10.0 uM
[29] = molecular target: Glycogen synthase kinase-3 beta (Homo sapiens) (UniProt P49841); settings: Compound concentration 1000.0 nM
[30] = molecular target: Serine/threonine-protein kinase ULK3 (Homo sapiens) (UniProt Q6PHR2); settings: Compound concentration 1000.0 nM
[31] = molecular target: RAF proto-oncogene serine/threonine-protein kinase (Homo sapiens) (UniProt P04049); settings: Compound concentration 1000.0 nM
Chain of RAF proto-oncogene serine/threonine-protein kinase (Homo sapiens) (P04049 whole entry): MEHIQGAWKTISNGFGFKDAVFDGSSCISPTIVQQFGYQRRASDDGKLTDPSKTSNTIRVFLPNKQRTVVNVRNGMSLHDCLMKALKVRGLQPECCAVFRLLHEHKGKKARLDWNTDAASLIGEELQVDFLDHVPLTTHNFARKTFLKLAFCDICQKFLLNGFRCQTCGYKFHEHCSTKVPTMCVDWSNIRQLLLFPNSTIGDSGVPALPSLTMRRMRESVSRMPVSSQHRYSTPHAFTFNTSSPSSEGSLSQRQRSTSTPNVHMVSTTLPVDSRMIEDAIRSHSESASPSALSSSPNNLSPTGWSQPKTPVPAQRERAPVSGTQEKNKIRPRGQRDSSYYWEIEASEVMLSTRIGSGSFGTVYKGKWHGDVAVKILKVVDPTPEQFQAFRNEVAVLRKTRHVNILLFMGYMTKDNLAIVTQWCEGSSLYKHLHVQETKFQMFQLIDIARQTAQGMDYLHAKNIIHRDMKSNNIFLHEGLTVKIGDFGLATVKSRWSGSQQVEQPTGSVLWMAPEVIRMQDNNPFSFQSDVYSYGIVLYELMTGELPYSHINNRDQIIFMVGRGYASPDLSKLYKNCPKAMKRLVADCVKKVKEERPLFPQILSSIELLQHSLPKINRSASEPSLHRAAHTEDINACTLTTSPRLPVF

[32] = molecular target: Serine/threonine-protein kinase PAK 6 (Homo sapiens) (UniProt Q9NQU5); settings: Compound concentration 1000.0 nM
[33] = molecular target: Serine/threonine-protein kinase 32B (Homo sapiens) (UniProt Q9NY57); settings: Compound concentration 1000.0 nM
[34] = system: Epidermal growth factor receptor (Homo sapiens), P00533 [UNDEFINED MUTATION]; settings: Compound concentration 1000.0 nM
[35] = molecular target: 5-hydroxytryptamine receptor 1A (Homo sapiens) (UniProt P08908); settings: Compound concentration 10.0 uM
[36] = system: Tyrosine-protein kinase ABL1 (Homo sapiens), P00519 [F317I]; settings: Compound concentration 1000.0 nM
[37] = molecular target: Interleukin-1 receptor-associated kinase 4 (Homo sapiens) (UniProt Q9NWZ3); settings: Compound concentration 1000.0 nM
[38] = molecular target: Epithelial discoidin domain-containing receptor 1 (Homo sapiens) (UniProt Q08345); settings: Compound concentration 1000.0 nM
[39] = molecular target: Calcium/calmodulin-dependent protein kinase type IV (Homo sapiens) (UniProt Q16566); settings: Compound concentration 1000.0 nM
Chain of Calcium/calmodulin-dependent protein kinase type IV (Homo sapiens) (Q16566 whole entry): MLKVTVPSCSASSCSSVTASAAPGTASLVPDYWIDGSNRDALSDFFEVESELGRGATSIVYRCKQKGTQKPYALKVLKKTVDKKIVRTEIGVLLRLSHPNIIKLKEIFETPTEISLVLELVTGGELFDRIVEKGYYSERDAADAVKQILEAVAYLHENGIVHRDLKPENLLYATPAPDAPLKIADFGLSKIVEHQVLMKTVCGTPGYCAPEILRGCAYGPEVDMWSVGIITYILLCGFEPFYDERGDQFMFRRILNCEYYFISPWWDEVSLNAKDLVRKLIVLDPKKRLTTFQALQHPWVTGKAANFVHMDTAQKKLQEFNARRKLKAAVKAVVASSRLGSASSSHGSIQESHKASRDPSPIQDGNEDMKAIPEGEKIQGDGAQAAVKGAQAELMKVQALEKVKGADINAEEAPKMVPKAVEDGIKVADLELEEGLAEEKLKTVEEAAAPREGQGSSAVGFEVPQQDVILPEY

[40] = molecular target: Serine/threonine-protein kinase 16 (Homo sapiens) (UniProt O75716); settings: Compound concentration 1000.0 nM
Chain of Serine/threonine-protein kinase 16 (Homo sapiens) (O75716 whole entry): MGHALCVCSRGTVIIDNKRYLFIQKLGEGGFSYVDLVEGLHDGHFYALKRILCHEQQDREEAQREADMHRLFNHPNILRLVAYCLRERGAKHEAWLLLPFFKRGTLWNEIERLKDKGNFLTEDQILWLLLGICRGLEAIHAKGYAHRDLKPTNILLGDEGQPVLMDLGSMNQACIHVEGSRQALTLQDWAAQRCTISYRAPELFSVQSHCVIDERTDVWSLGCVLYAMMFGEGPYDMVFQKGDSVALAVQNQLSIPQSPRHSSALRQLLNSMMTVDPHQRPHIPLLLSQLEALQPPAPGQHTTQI

[41] = molecular target: Serine/threonine-protein kinase WNK2 (Homo sapiens) (UniProt Q9Y3S1); settings: Compound concentration 1000.0 nM
Chain of Serine/threonine-protein kinase WNK2 (Homo sapiens) (Q9Y3S1 whole entry): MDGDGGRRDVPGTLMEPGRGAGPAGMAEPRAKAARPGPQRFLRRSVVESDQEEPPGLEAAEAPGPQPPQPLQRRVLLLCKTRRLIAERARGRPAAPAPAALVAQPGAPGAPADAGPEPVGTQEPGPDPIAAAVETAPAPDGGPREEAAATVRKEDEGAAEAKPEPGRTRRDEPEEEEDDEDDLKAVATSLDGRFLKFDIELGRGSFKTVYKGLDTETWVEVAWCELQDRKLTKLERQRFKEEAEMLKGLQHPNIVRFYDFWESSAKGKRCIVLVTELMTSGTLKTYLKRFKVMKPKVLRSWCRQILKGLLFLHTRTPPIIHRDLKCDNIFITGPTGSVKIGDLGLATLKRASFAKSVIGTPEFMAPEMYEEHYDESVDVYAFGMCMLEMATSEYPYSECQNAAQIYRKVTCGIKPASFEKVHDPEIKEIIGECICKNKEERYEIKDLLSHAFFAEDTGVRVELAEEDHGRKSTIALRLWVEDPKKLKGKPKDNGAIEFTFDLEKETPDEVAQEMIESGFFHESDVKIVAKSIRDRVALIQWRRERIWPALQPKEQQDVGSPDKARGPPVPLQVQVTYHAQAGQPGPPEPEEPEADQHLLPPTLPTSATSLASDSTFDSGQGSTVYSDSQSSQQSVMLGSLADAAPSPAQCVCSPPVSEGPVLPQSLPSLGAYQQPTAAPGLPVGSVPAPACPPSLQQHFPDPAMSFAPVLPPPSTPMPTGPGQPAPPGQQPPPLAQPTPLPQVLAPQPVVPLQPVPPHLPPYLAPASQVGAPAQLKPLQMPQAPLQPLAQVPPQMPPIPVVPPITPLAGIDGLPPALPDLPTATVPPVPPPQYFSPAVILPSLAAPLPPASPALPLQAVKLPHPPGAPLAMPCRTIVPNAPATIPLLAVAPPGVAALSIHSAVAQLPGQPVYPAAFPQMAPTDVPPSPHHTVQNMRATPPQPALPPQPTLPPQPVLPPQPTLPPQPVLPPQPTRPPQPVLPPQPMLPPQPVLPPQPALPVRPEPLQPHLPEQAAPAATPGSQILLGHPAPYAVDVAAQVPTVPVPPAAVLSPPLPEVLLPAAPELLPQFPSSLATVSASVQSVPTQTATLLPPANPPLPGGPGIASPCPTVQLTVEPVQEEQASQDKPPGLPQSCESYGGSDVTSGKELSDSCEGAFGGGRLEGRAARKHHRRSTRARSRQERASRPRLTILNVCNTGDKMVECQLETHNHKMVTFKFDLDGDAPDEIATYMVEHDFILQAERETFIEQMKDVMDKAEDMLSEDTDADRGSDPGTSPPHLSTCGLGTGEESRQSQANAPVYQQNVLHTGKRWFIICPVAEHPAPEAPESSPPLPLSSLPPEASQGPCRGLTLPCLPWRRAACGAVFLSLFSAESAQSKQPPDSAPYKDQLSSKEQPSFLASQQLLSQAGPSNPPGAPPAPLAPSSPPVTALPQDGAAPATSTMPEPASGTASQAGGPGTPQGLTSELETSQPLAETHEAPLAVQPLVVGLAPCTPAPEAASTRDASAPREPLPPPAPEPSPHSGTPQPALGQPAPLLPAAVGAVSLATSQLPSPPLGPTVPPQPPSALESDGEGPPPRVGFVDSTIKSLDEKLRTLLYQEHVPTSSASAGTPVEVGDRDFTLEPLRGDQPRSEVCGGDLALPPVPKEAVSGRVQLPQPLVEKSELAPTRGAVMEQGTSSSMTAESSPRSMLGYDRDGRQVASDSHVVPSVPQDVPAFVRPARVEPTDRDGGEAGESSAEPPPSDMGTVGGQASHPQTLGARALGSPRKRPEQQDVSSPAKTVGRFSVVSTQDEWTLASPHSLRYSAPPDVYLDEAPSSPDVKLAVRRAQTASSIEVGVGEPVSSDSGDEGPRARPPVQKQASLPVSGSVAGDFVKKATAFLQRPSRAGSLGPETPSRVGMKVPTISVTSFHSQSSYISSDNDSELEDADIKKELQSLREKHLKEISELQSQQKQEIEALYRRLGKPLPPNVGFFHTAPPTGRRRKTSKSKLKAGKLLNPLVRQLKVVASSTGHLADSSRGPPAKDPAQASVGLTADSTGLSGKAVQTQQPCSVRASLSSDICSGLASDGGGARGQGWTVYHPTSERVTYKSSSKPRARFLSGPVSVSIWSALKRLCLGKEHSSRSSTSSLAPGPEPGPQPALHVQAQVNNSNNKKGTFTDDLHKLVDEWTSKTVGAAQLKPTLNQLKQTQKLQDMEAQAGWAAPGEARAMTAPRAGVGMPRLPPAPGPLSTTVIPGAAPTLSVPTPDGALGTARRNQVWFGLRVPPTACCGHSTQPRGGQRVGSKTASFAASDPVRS

[42] = molecular target: 5-hydroxytryptamine receptor 2B (Homo sapiens) (UniProt P41595); settings: Compound concentration 10.0 uM
[43] = system: Epidermal growth factor receptor (Homo sapiens), P00533 [T790M]; settings: Compound concentration 1000.0 nM

O=c1nc(-c2ccccn2)sc2ccccc12 [BTZO-1]
residual activity [1]: 92%
residual activity [2]: 99%
residual activity [3]: 98%
MEC2.0 [4]: 820 nM
inhibition [5]: 3.52%
residual activity [6]: 93%
residual activity [7]: 77%
inhibition [8]: 1.65%
residual activity [9]: 95%
residual activity [10]: 85%
residual activity [11]: 100%
residual activity [12]: 84%
residual activity [13]: 90%
residual activity [14]: 87%
residual activity [15]: 96%
residual activity [16]: 100%
residual activity [17]: 92%
residual activity [18]: 95%
residual activity [19]: 100%
residual activity [20]: 56%
residual activity [21]: 99%
residual activity [22]: 100%
residual activity [23]: 72%
residual activity [24]: 100%
residual activity [25]: 84%
residual activity [26]: 100%
residual activity [27]: 100%
inhibition [28]: -9.43%
residual activity [29]: 74%
residual activity [30]: 100%
residual activity [31]: 100%
residual activity [32]: 100%
residual activity [33]: 100%
residual activity [34]: 70%
inhibition [35]: 9.69%
residual activity [36]: 91%
residual activity [37]: 100%
residual activity [38]: 85%
residual activity [39]: 97%
residual activity [40]: 83%
residual activity [41]: 100%
inhibition [42]: 34.3%
residual activity [43]: 100%

O=C1NC(c2ccccn2)Sc2ccccc21 (configuration not stated) [BTZO-4]
residual activity [1]: 86%
residual activity [2]: 70%
residual activity [3]: 100%
MEC1.5 [4]: > 1 µM
MEC2.0 [4]: > 10000 nM
inhibition [5]: 6.47%
residual activity [6]: 87%
residual activity [7]: 60%
inhibition [8]: 4.68%
residual activity [9]: 80%
residual activity [10]: 88%
residual activity [11]: 92%
residual activity [12]: 80%
residual activity [13]: 82%
residual activity [14]: 90%
residual activity [15]: 97%
residual activity [16]: 96%
residual activity [17]: 97%
residual activity [18]: 91%
residual activity [19]: 100%
residual activity [20]: 71%
residual activity [21]: 89%
residual activity [22]: 100%
residual activity [23]: 81%
residual activity [24]: 100%
residual activity [25]: 70%
residual activity [26]: 100%
residual activity [27]: 92%
inhibition [28]: -4.89%
residual activity [29]: 65%
residual activity [30]: 100%
residual activity [31]: 100%
residual activity [32]: 100%
residual activity [33]: 100%
residual activity [34]: 86%
inhibition [35]: 24.7%
residual activity [36]: 88%
residual activity [37]: 100%
residual activity [38]: 86%
residual activity [39]: 72%
residual activity [40]: 83%
residual activity [41]: 100%
inhibition [42]: -5.37%
residual activity [43]: 96%
